What is called Ki is a measure of affinity in units of concentration, obtained from inhibition or displacement. One may read the EC50 as the concentration needed to bring the measured effect to its halfway point.

Assay [1] concerns the target human CB2 receptors (Homo sapiens (Human), UniProt P34972). Put plainly: human CB2 radioligand binding assay ([3H]CP 55,940 competition). The following applies: HEK293 membranes, 0.5 nM [3H]CP 55,940; read-out: human CB2 (Ki). On the procedure:
(§1) The CB1 and CB2 radioligand binding assays described herein are utilized to ascertain the affinity of compounds of the present application for binding to CB2 relative to CB1 receptors.
HEK293 cells stably expressing human CB2 receptors were grown until a confluent monolayer was formed. Briefly, the cells were harvested and homogenized in TE buffer (50 mM Tris-HCl, 1 mM MgCl2, and 1 mM EDTA) using a polytron for 2×10 second bursts in the presence of protease inhibitors, followed by centrifugation at 45,000×g for 20 minutes. The final membrane pellet was re-homogenized in storage buffer (50 mM Tris-HCl, 1 mM MgCl2, and 1 mM EDTA and 10% sucrose) and frozen at −78° C. until used. Saturation binding reactions were initiated by the addition of membrane preparation (protein concentration of 5 μg/well for human CB2) into wells of a deep well plate containing [^3H]CP 55,940 (120 Ci/mmol, a nonselective CB agonist commercially available from Tocris) in assay buffer (50 mM Tris, 2.5 mM EDTA, 5 mM MgCl2, and 0.5 mg/mL fatty acid free BSA, pH 7.4). After 90 min incubation at 30° C., binding reaction was terminated by the addition of 300 μL/well of cold assay buffer followed by rapid vacuum filtration through a UniFilter-96 GF/C filter plates (pre-soaked in 1 mg/mL BSA for 2 hours). The bound activity was counted in a TopCount using Microscint-20. Saturation experiments were conducted with twelve concentrations of [^3H]CP 55,940 ranging from 0.01 to 8 nM. Competition experiments were conducted with 0.5 nM [^3H]CP 55,940 and five concentrations (0.01 nM to 10 μM) of displacing ligands. The addition of 10 μM unlabeled CP 55,940 (Tocris, Ellisville, Mo.) was used to assess nonspecific binding.

Assay [2] addresses rat CB2 receptors (Rattus norvegicus (Rat), UniProt Q9QZN9). Put plainly: rat CB2 radioligand binding assay ([3H]CP 55,940 competition). As to conditions: HEK293 membranes, 0.5 nM [3H]CP 55,940. On the procedure: as §1
HEK293 cells stably expressing rat CB2 receptors were grown until a confluent monolayer was formed. Briefly, the cells were harvested and homogenized in TE buffer (50 mM Tris-HCl, 1 mM MgCl2, and 1 mM EDTA) using a polytron for 2×10 second bursts in the presence of protease inhibitors, followed by centrifugation at 45,000×g for 20 minutes. The final membrane pellet was re-homogenized in storage buffer (50 mM Tris-HCl, 1 mM MgCl2, and 1 mM EDTA and 10% sucrose) and frozen at −78° C. until used. Saturation binding reactions were initiated by the addition of membrane preparation (protein concentration of 20 μg/well for rat CB2) into wells of a deep well plate containing [^3H]CP 55,940 (120 Ci/mmol, a nonselective CB agonist commercially available from Tocris) in assay buffer (50 mM Tris, 2.5 mM EDTA, 5 mM MgCl2, and 0.5 mg/mL fatty acid free BSA, pH 7.4). After 45 min incubation at 30° C., binding reaction was terminated by the addition of 300 μl/well of cold assay buffer followed by rapid vacuum filtration through a UniFilter-96 GF/C filter plates (pre-soaked in 1 mg/mL BSA for 2 hours). The bound activity was counted in a TopCount using Microscint-20. Saturation experiments were conducted with twelve concentrations of [^3H]CP 55,940 ranging from 0.01 to 8 nM. Competition experiments were conducted with 0.5 nM [^3H]CP 55,940 and five concentrations of displacing ligands selected from the range of 0.01 nM to 10 μM. The addition of 10 μM unlabeled CP 55,940 (Tocris, Ellisville, Mo.) was used to assess nonspecific binding.

In assay [3] the target is rat CB2 receptors (HEK cells) (Rattus norvegicus (Rat), UniProt Q9QZN9). In words: rat CB2 cyclase functional assay (HitHunter cAMP). In kind it is cell-based. As to conditions: HEK cells, forskolin 18 μM; read-out: rat CB2 cyclase (EC50). On the procedure: (§2) The cyclase functional assays were performed using the HitHunter™ cAMP assay kit from DiscoveRx (Fremont, Calif.) according to vendor's protocol. Briefly, HEK cells expressing CB2 or CB1 receptors (rat or human) were detached using cell dissociation buffer (Invitrogen, Carlsbad, Calif.), dispersed and placed in suspension at 10,000 cells per well in 96 well plates prior to the assay. Cell suspensions were incubated at 37° C. for 20 min with variable concentrations of test ligands and or 10 μM CP 55,940-positive control in the presence of a fixed concentration of forskolin (18 μM for rat CB2 and 37 μM for rat CB1) in Dulbescco's phosphate-buffered saline (Invitrogen, Carlsbad, Calif.) supplemented with bovine serum albumin (0.01% final concentration). The reactions were terminated by the addition of lysis buffer and the luminescence was detected following the procedure according to the manufacturer's instructions. EC50 values were calculated using sigmoidal dose-response curve fitting from Prism (GraphPad).

Assay [4] deals with rat CB1 receptors (HEK cells) (Rattus norvegicus (Rat), UniProt P20272). In words: rat CB1 cyclase functional assay (HitHunter cAMP). The assay is classed as cell-based. On the procedure:
as §2

The mark [5] stands for this setting: HEK cells, forskolin 37 μM, read-out: rCB1 cyclase (EC50).

Like-named read-outs stand apart in the source and are kept apart here. Bounds are passed on as bounds.

Sequence of human CB2 receptors (P34972 whole entry): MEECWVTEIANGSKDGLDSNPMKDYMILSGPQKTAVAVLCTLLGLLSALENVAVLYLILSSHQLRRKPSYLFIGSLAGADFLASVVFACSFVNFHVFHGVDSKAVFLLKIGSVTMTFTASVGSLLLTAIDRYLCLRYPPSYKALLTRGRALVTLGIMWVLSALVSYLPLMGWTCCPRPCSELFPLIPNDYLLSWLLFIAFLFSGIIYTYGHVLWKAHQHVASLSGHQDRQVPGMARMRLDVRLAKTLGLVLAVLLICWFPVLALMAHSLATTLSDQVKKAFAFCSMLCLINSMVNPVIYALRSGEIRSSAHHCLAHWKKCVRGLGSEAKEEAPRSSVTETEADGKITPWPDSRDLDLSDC
Sequence of rat CB1 receptors (HEK cells) (P20272 whole entry): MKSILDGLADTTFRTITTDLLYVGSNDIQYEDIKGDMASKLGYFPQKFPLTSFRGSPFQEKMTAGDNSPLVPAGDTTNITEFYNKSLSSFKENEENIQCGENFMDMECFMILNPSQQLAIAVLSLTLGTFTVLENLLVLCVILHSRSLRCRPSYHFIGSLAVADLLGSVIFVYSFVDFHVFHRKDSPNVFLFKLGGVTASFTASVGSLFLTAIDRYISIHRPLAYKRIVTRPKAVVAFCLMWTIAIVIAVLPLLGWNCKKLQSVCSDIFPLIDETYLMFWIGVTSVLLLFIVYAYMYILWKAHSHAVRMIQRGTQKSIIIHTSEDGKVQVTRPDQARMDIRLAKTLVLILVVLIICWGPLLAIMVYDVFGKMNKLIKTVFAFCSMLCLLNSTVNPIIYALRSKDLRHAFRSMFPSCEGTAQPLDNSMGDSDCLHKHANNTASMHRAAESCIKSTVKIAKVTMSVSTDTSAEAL

As to `CC(C)(C)c1cn(C[C@H]2CCCO2)/c(=N/C(=O)c2cc(C(F)(F)F)ccc2OC[C@H]2CCN2)s1` [Example 1, 2-[(2R)-azetidin-2-ylmethoxy]-N-[(2Z)-5-tert-butyl-3-[(2R)-tetrahydrofuran-2-ylmethyl]-1,3-thiazol-2(3H)-ylidene]-5-(trifluoromethyl)benzamide], the Ki in assay [1] was 115 nM; in assay [2] it was 15 nM. The EC50 stood at 2.26 nM in assay [3] and 9.33 µM in assay [4].
For `CC(C)(C)c1cn(C[C@H]2CCCO2)/c(=N/C(=O)c2cc(C(F)(F)F)ccc2OC[C@@H]2CCN2)s1` [Example 2, 2-[(2S)-azetidin-2-ylmethoxy]-N-[(2Z)-5-tert-butyl-3-[(2R)-tetrahydrofuran-2-ylmethyl]-1,3-thiazol-2(3H)-ylidene]-5-(trifluoromethyl)benzamide], in that order: 15 nM, 3 nM, 0.64 nM and 3.24 µM.
For `CN1CC[C@H]1COc1ccc(C(F)(F)F)cc1C(=O)/N=c1\sc(C(C)(C)C)cn1C[C@H]1CCCO1` [Example 3, N-[(2Z)-5-tert-butyl-3-[(2R)-tetrahydrofuran-2-ylmethyl]-1,3-thiazol-2(3H)-ylidene]-2-{[(2S)-1-methylazetidin-2-yl]methoxy}-5-(trifluoromethyl)benzamide], the Ki in assay [1] was 7.4 nM; in assay [2], 4.5 nM. In addition, the EC50 in assay [3] was 0.09 nM; in assay [4], 1.02 µM.
In the case of `CC(C)(C)c1cn(C[C@H]2CCCO2)/c(=N/C(=O)c2cc(C(F)(F)F)ccc2OC[C@@H]2CCCCN2)s1` [Example 4], the Ki in assay [1] came out at 0.7 nM; in assay [2], 0.6 nM. Further, the EC50 in assay [3] was determined as 0.4 nM; in assay [4] (setting [5]), 0.395 µM.
For `CN1CCCC[C@H]1COc1ccc(C(F)(F)F)cc1C(=O)/N=c1\sc(C(C)(C)C)cn1C[C@H]1CCCO1` [Example 5], in that order: 0.7 nM, 1.4 nM, 0.15 nM and 0.612 µM.
`CC(C)(C)c1cn(C[C@H]2CCCO2)/c(=N/C(=O)c2cc(C(F)(F)F)ccc2OC[C@H]2CCCCN2)s1` [Example 6, N-[(2Z)-5-tert-butyl-3-[(2R)-tetrahydrofuran-2-ylmethyl]-1,3-thiazol-2(3H)-ylidene]-2-[(2R)-piperidin-2-ylmethoxy]-5-(trifluoromethyl)benzamide]: the Ki worked out at 30 nM in assay [1] and 14 nM in assay [2]. Also, the EC50 in assay [3] was found to be 0.4 nM; in assay [4] it was 4.5 µM.
For `CN1CCCC[C@@H]1COc1ccc(C(F)(F)F)cc1C(=O)/N=c1\sc(C(C)(C)C)cn1C[C@H]1CCCO1` [Example 7, N-[(2Z)-5-tert-butyl-3-[(2R)-tetrahydrofuran-2-ylmethyl]-1,3-thiazol-2(3H)-ylidene]-2-{[(2R)-1-methylpiperidin-2-yl]methoxy}-5-(trifluoromethyl)benzamide], the results for the Ki in assay [1] and in assay [2] were 33 nM and 19 nM, respectively. Also, the EC50 in assay [3] came to 0.38 nM; in assay [4] it was 4.7 µM.
Regarding `CN1CC[C@@H]1COc1ccc(C(F)(F)F)cc1C(=O)/N=c1\sc(C(C)(C)C)cn1C[C@H]1CCCO1` [Example 8, N-[(2Z)-5-tert-butyl-3-[(2R)-tetrahydrofuran-2-ylmethyl]-1,3-thiazol-2(3H)-ylidene]-2-{[(2R)-1-methylazetidin-2-yl]methoxy}-5-(trifluoromethyl)benzamide], the Ki in assay [1] came to 47 nM; in assay [2] it was 17 nM. Besides, the EC50 came out at 0.35 nM in assay [3] and 3.68 µM in assay [4].
As to `Cn1cncc1COc1ccc(C(F)(F)F)cc1C(=O)/N=c1\sc(C(C)(C)C)cn1C[C@H]1CCCO1` [Example 67, N-[(2Z)-5-tert-butyl-3-[(2R)-tetrahydrofuran-2-ylmethyl]-1,3-thiazol-2(3H)-ylidene]-2-[(1-methyl-1H-imidazol-5-yl)methoxy]-5-(trifluoromethyl)benzamide], the Ki in assay [1] came out at 115 nM; in assay [2], 13 nM. In addition, the EC50 in assay [4] (setting [5]) was > 27 µM.
Consider `CC(C)(C)/C(COc1ccc(C(F)(F)F)cc1C(=O)/N=c1\sc(C(C)(C)C)cn1C[C@H]1CCCO1)=N/O` [Example 70, N-[(2Z)-5-tert-butyl-3-[(2R)-tetrahydrofuran-2-ylmethyl]-1,3-thiazol-2(3H)-ylidene]-2-{[(2Z)-2-(hydroxyimino)-3,3-dimethylbutyl]oxy}-5-(trifluoromethyl)benzamide], for which the results for the Ki in assay [1] and in assay [2] were 12 nM and 8.1 nM, respectively. For the same compound, the EC50 in assay [4] is > 27 µM.
On the same counts, the results for `CC(C)(C)/C(COc1ccc(C(F)(F)F)cc1C(=O)/N=c1\sc(C(C)(C)C)cn1C[C@H]1CCCO1)=N\O` [Example 71, N-[(2Z)-5-tert-butyl-3-[(2R)-tetrahydrofuran-2-ylmethyl]-1,3-thiazol-2(3H)-ylidene]-2-{[(2E)-2-(hydroxyimino)-3,3-dimethylbutyl]oxy}-5-(trifluoromethyl)benzamide] are 5.4 nM, 4.1 nM and > 27 µM.
On the same counts, the results for `CC(C)(C)C(=O)COc1ccc(C(F)(F)F)cc1C(=O)/N=c1\sc(C(C)(C)C)cn1C[C@H]1CCCO1` [Example 72, N-[(2Z)-5-tert-butyl-3-[(2R)-tetrahydrofuran-2-ylmethyl]-1,3-thiazol-2(3H)-ylidene]-2-(3,3-dimethyl-2-oxobutoxy)-5-(trifluoromethyl)benzamide] are 0.9 nM, 0.3 nM and > 27 µM.
In the case of `CC(COc1ccc(C(F)(F)F)cc1C(=O)/N=c1\sc(C(C)(C)C)cn1C[C@H]1CCCO1)=NO` [Example 73, N-[(2Z)-5-tert-butyl-3-[(2R)-tetrahydrofuran-2-ylmethyl]-1,3-thiazol-2(3H)-ylidene]-2-{[2-(hydroxyimino)propyl]oxy}-5-(trifluoromethyl)benzamide], the Ki was found to be 1.8 nM in assay [1] and 0.5 nM in assay [2]. In addition, the EC50 in assay [4] (setting [5]) was 2.32 µM.
Consider `CC(=NOc1ccc(C(F)(F)F)cc1C(=O)/N=c1\sc(C(C)(C)C)cn1C[C@H]1CCCO1)C(F)(F)F` [Example 80, N-[(2Z)-5-tert-butyl-3-[(2R)-tetrahydrofuran-2-ylmethyl]-1,3-thiazol-2(3H)-ylidene]-5-(trifluoromethyl)-2-({[2,2,2-trifluoro-1-methylethylidene]amino}oxy)benzamide], for which the Ki in assay [1] amounted to 4.4 nM; in assay [2], 4.8 nM. Also, the EC50 in assay [4] was > 27 µM.

Source of the values: patent US8846730B2, “Compounds as cannabinoid receptor ligands” (priority 2008, dated 2014).
